Experiment [1] relates to Akt phosphorylation (Ser473) in bone marrow-derived macrophages (BMDM). Nature of the experiment: Akt phosphorylation in BMDM stimulated with C5a. The format is cell-based, mouse. The settings on record: C5a 25 nM. The procedure:
BMDMs were obtained from bone marrows isolated from femurs and tibias of C57BL/6J mice. Bone marrow cells were cultured in a petri plate in the presence of RPMI additioned with 30% L-cell conditioned medium (supernatant of 5 days culture of L929 cells), 20% FBS and 100 μg/ml penicillin and streptomycin. After about 7 days, almost all cells became attached BMDM. BMDM were pretreated with Versene (GIBCO^TM #15040066) to detach them from the plate, washed, and placed on a 24 wells culture plate at a density of 2 × 10^5 cell/well in RPMI free medium. After 6 h of starvation, BMDMs were pretreated with CL27c at different concentrations and stimulated with C5a (25 nM, Sigma-Aldrich #SRP4895A) for 5 min. Proteins were extracted with Laemnli buffer.
For all cell types, phosphorylated Akt (P-Akt, Ser 473, 1:100, Cell Signaling Technology #4060) production was detected by western blot analysis and quantified with ChemiDoc™ XRS system. P-Akt signals are normalized on endogenous. For the calculation of EC50 values, a percentage of residual P-Akt was calculated for each inhibitor concentration by using the control vehicle as 100%. To derive the EC50, all data were plotted on a dose response curve (Graph Pad software) and the EC50 was calculated by using the non-linear regression fit (equation [log agonist] vs response–variable slope). […]
panel). […] The respective EC50 was calculated by using nonlinear

Experiment [2] concerns glucocorticoid-resistant neutrophilic asthma. Nature of the experiment: Glucocorticoid-resistant asthma model. The format is in vivo, BALB/c mice. The conditions noted are these: CL27c 2 mg/ml aerosol. The procedure: BALF was performed to obtain leukocytes from alveolar space. The trachea was exposed and a 1.7-mm-outside-diameter polyethylene catheter was inserted. BAL was performed by washing the lungs three-times with three different 500 µl aliquots of PBS. BALF samples were centrifuged at 600 × g for 10 min at 4 °C on a histology glass slide and stained with Diff Quick (MICROPTIC, #DQ-ST). The number of leukocytes and differential counts of different population were obtained evaluating the percentage leukocyte populations over the total cell number.
Mice were anesthetized with a subcutaneous injection of ketamine and xylazine (130 mg/Kg ketamine and 8.5 mg/Kg xylazine) to maintain spontaneous breathing under anesthesia. Mice were tracheostomized, placed in a body plethysmograph and connected to a computer-controlled ventilator (Forced Pulmonary Maneuver System®, Buxco Research Systems©, Wilmington, North Carolina USA). First, an average breathing frequency of 160 breaths/min was imposed to the anesthetized animal by a pressure-controlled ventilation until a regular breathing pattern and complete expiration at each breathing cycle was obtained. Under mechanical respiration, respiratory flow and airway pressure were measured to compute dynamic compliance (Cdyn) and lung resistance (RL). To measure the TLC, pressure–volume maneuvers were performed, where lungs were inflated to a standard pressure of +30 cm H2O and then let slowly exhale until a negative pressure of −30 cm H2O was reached. To measure the FEV Fast-Flow Volume maneuvers was performed. In this maneuver, lungs were first inflated to +30 cm H2O (TLC) and, immediately, a negative pressure (−30 cm H2O) was applied in order to enforce expiration. To evaluate AHR, the same mice used in previous maneuvers (basal condition) received Metacholine, 1 mg/Kg (Acetyl-β-methylcholine chloride, A-2251, Sigma-Aldrich St.Louis, MO,USA) i.v., and 20 sec after, a new set of maneuvers were conducted to assess RL changes. Suboptimal maneuvers were rejected and for each test in every single mouse at least three acceptable maneuvers were conducted to obtain a reliable mean for all numeric parameters.
IL-5, IL-13, eotaxin, TGF-β, KC, IL-17A, and MCP-1 levels in the BALF and anti-OVA IgE levels in serum were measured by ELISA technique using commercial DuoSet kits R&D Systems according to the instructions of the manufacturer. Results were expressed in levels of cytokines per ml of […] (pg/ml) or arbitrary units (A.U.).
On day 1 BALB/c mice received systemic immunization by subcutaneous injection of 20 µg of chicken egg ovalbumin (OVA grade V, >98% pure; Sigma, St Louis, MO) in saline, emulsified in 75 µL CFA (Complete Freund’s Adjuvant; Sigma-Aldrich) (Figure 5)[52]. On days 25–28 mice were exposed to aerosolised ovalbumin (1% in saline) for 20 min per day. Mice were exposed during 30 min to aerosolized CL27c (2 mg/ml dissolved in 0.5 % tylaxopol/saline solution) or vehicle (0.5% tyloxapol/saline solution), or to systemic treatment with dexamethasone (5 mg/kg i.p. injection). Untreated control groups included mice challenged with PBS alone. On day 29, mice were sacrificed, and samples were collected for further analysis.
The left lung was removed and fixed in 4% neutral phosphate-buffered formalin (pH 7.4)[10]. The tissues were dehydrated gradually in ethanol, embedded in paraffin, cut into 4 µm sections, stained with H&E, Gomori’s trichrome and periodic acid schiff (PAS), and examined under light microscopy by a pathologist in a double blinded manner. Images of lung sections were captured with a digital camera (Optronics DEI-470) connected to a microscope (Olympus IX70) with a magnification of ×40 or ×100. Inflammation was scored according to modification of existing protocols[53] and to the histopathology criteria reported in Supplementary Table 4.

For `COC(=O)c1cccc(Cn2cc(-c3cccc4c(=O)cc(N5CCOCC5)[nH]c34)nn2)c1` [CL27c], the Akt/PKB phosphorylation result in experiment [1] was “readily reduced Akt/PKB phosphorylation”. In experiment [2], the “abundance of cytokines (MCP-1, IL-17A, KC, Eotaxin, IFN-γ)” value is recorded as “could not block systemic production of these mediators”. Besides, in experiment [2] (dexamethasone 5 mg/kg i.p.), the “airway hyperreactivity and lung resistance” value is “without modifying either airway hyperreactivity or lung resistance”; the “histopathology: overall score of lung damage / tissue inflammation” value is on record as “significantly reduce the overall score of lung damage”; the “lung compliance (Cdyn)” value is on record as “restored normal lung compliance”; the “number of inflammatory cells in BALF” value is listed as “reduce the number of inflammatory cells in BALF”.

The values are drawn from article PMC6290777, “Inhalation of the prodrug PI3K inhibitor CL27c improves lung function in asthma and fibrosis” (Nature Communications, 2018).
